The results in this text go back to paper PMC7835349 (Communications Biology, 2021).

Where “and” joins values, the source holds several entries; their conditions need not be identical. Equal values may be shown once.

The nature of series [1]: Formulation dependent plasma and tumour pharmacokinetics of AZD4320 (Fig S2b). It is filed as in vivo. The conditions noted are these: mouse, 5 mg/kg IV, 30% HPbCD. How it is done: Supplementary Figure 2. Formulation dependent efficacy of AZD4320 (a) A single 5mg/kg IV bolus dose of AZD4320 formulated in 30% hydroxypropyl-β-cyclodextrin (HP-β-CD) […]
Data in the graphs are represented as mean tumor volume
± SEM (n=5). Arrow indicates dosing schedule.(b) A pharmacokinetic profile from both […]
explained by differential profiles in the plasma. The plasma profiles are similar. The efficacy is consistent with the concentration profiles observed in the tumour (n=4, Tween formulation, yellow, n=8 HP-β-CD formulation, purple). Lines connect the mean values.
(1 picture or pasted object on this page, not shown here)

Series [2] is described as follows: Mathematical model of in vivo disposition of drug-dendrimer conjugates. The conditions noted are these: best fit of Eq. (3) to released AZD4320 in RS4;11 tumour. Also on record: species or system mouse.
Series [3] in a line: in vivo. The conditions noted are these: beagle, dog.
The nature of series [4]: Plasma protein binding (unbound fraction). It counts as in vitro ADME. The conditions noted are these: pre-clinical species and human, across pre-clinical species and man.
Series [5] is described as follows: Aqueous solubility. It counts as physicochemical. The conditions noted are these: aqueous buffers at physiological pH.
Series [6] has as its system cleaved caspase-3 (CC3). In words: Cleaved caspase-3 immunohistochemistry of RS4;11 tumours. The conditions noted are these: RS4;11 tumours, 1, 5 and 24 h post dose. It counts as in vivo, C.B-17 SCID mouse. How it is done: Formalin fixed paraffin embedded (FFPE) slides were cut on a rotary microtome at 4 µm and placed onto Superfrost plus slides (VWR) dried thoroughly, and then baked for 20 min in an oven at 60 °C. Slides were then stained on a Ventana Discovery XT using a CCI standard protocol and DAB Map Kit (Ventana cat # 760-124). The slides were then incubated in the primary CC3 (Cell Signaling Technology) antibody at 100µL per slide of a 1:50 dilution for 1 h. The secondary antibody was a biotinylated goat anti-rabbit from Vector Labs (PK-6101) made according to manufacturer’s instructions and put in an auto-dispense container. The slides were incubated in the secondary antibody for 30 min and then counterstained with Hematoxylin (Ventana 760-2021) for 4 min and blued with bluing reagent (Ventana 760-2037) for 4 min. After the Ventana run was complete, slides were taken off the machine, rinsed in reaction buffer, dehydrated, cleared and mounted with permount. Digital slide images were acquired at 20 x magnification using the Aperio Scanscope XT (Vista, CA).

Series [7] relates to SUDHL-4 xenograft. Nature of the series: SUDHL-4 xenograft efficacy and survival. It counts as in vivo, C.B-17 SCID mouse. The procedure: Female C.B.−17 SCID mice were purchased from Charles River Laboratories. Mice were 5–8 weeks old at the time of tumour implantation. All xenograft studies were conducted at our Association for the Assessment and Accreditation of Laboratory Animal Care accredited facility in Waltham, MA in accordance with ethical regulations described in the guidelines established by the internal Institutional Animal Care and Use Committee. The dendrimer conjugates were formulated in citrate/phosphate buffer pH 5.0, diluted 1:10 with 5% glucose containing 1% w/v Kolliphor HS15, and AZD4320 was formulated in 30% HP-β-CD and dosed as a weekly intravenous (IV) administration at a volume of 5 ml/kg at the indicated doses. Five million RS4;11, five million SUDHL-4 or five million OCI-LY-10 cells were injected subcutaneously in the right flank of mice in a volume of 0.1 ml. Tumour volumes (measured by caliper), animal body weight, and tumor condition were recorded twice weekly for the duration of the study. The tumour volume was calculated (taking length to be the longest diameter across the tumour and width to be the corresponding perpendicular diameter) using the formula: length (mm) x width (mm)^2/0.52. For efficacy studies, mice were randomized based on tumour volumes using stratified sampling and enrolled into control and treatment groups. Tumour growth inhibition from the start of treatment was quantified by measuring the difference in tumour volume between control and treated groups. Survival analysis was evaluated using Mantel-Cox test. Tumours were also taken for bioanalysis.

For series [8], the system named is luciferase-tagged Ri-1 tumour cells. Nature of the series: Disseminated luciferase-tagged Ri-1 DLBCL model (bioluminescence). It counts as in vivo, C.B-17 SCID mouse. The procedure:
Ten million luciferase-tagged Ri-1 tumour cells were injected intravenously in the tail vein of C.B.−17 SCID female mice in a volume of 0.1 ml. Tumour burden (determined by Xenogen IVIS imaging), body weight and health condition were recorded twice weekly for the duration of the study. For Xenogen imaging, mice received an intraperitoneal administration of 150 mg/kg D- Luciferin 10 to 15 minutes prior to imaging. Imaging was performed under isoflurane anaesthesia and data analyzed using Living Image software (Xenogen). Statistical significance was evaluated using non-parametric, unpaired, two-tailed t-test.

As for `CN(CCO)CCC(CSc1ccccc1)Nc1ccc(S(=O)(=O)NC(=O)c2ccc(N3CCC(C(O)c4ccccc4-c4ccc(Cl)cc4)CC3)cc2)cc1S(=O)(=O)C(F)(F)F` (centres unmarked) [AZD4320], the concentration at 6 h stood at 65 nM in series [1] (C.B-17 SCID, plasma, iv, 5 mg/kg, 6 h, study CIV-12-112); 312 nM in series [1] (C.B-17 SCID, tumour, iv, 5 mg/kg, Tumor, 6 h, study CIV-11-055); 436 nM in series [1] (C.B-17 SCID, tumour, iv, 5 mg/kg, Tumor, 6 h, study CIV-12-112). Moreover, in series [1] (C.B-17 SCID, tumour, iv, 5 mg/kg, Tumor, 0.5 h, study CIV-11-055), the concentration at 0.5 h turned out to be 815 nM. Also, in series [1] (C.B-17 SCID, tumour, iv, 5 mg/kg, Tumor, 1 h, study CIV-11-055), the concentration at 1 h came to 473 nM. The concentration at 24 h worked out at 275 nM in series [1] (C.B-17 SCID, tumour, iv, 5 mg/kg, Tumor, 24 h, study CIV-11-055) and 165 nM in series [1] (C.B-17 SCID, tumour, iv, 5 mg/kg, Tumor, 24 h, study CIV-12-112). The Concentration in series [1] (Plasma, 6 h, study CIV-12-112) is 114 nM and 108 nM and 59 nM; in series [1] (Tumor, 0.5 h, study CIV-11-055), 750 nM and 857 nM and 503 nM; in series [1] (Tumor, 1 h, study CIV-11-055), 394 nM and 626 nM and 461 nM; in series [1] (Tumor, 6 h, study CIV-11-055), 253 nM and 344 nM and 313 nM; in series [1] (Tumor, 6 h, study CIV-12-112), 568 nM and 289 nM and 439 nM; in series [1] (Tumor, 24 h, study CIV-11-055), 196 nM and 164 nM and 174 nM. For the same compound, the Concentration in series [1] (Tumor, 24 h, study CIV-12-112) was 172 nM and 93 nM and 130 nM. The “Constant for return of released AZD4320 from tumour tissue to systemic circulation (first order) ktu” value in series [2] was determined as 0.053 h⁻¹. Further, the MTD at 48 h in series [3] was < 3 mg/kg. Also, in series [4], the fraction unbound was < 3e-05. Moreover, in series [5], the solubility was < 1 µg/mL. Moreover, the “cleaved caspase-3 induction by IHC” value in series [6] is reported as “robust cleaved caspase induction”.
For the compound AZD4320-MIDA-PEG2100 [AZD0466], the “animals with complete and durable regressions” value was 5/6 in series [7] (SUDHL-4, 103 mg/kg AZD0466 + 10 mg/kg rituximab) and 6/6 in series [7] (SUDHL-4, 172 mg/kg AZD0466 + 10 mg/kg rituximab). Moreover, the “combination effect” value in series [7] (SUDHL-4, AZD0466 at various doses combined with 10 mg/kg rituximab) is given as “tumour regressions were seen in the combination groups at all doses”. Further, the “SUDHL-4 xenograft efficacy, Geo Mean” value in series [7] (day 1) turned out to be 200.82; in series [7] (day 5) it was 191.7; in series [7] (day 9) it was 255.655; in series [7] (day 12), 291.711; in series [7] (day 16), 450.847; in series [7] (day 19), 493.153. For the same compound, the “SUDHL-4 xenograft efficacy, Geo Mean” value came to 795.158 in series [7] (day 23), 1047.96 in series [7] (day 26) and 1181.66 in series [7] (day 29). Besides, the “Raw bioluminescence counts in individual animals” value (from here on “Raw bioluminescence counts”) in series [8] (AZD0466 34 mg/kg (10mg/kg AZD4320), day 1) was 1011000 counts and 1455000 counts and 962000 counts and 1223000 counts and 856300 counts; in series [8] (AZD0466 34 mg/kg (10mg/kg AZD4320), day 4), 1131000 counts and 1477000 counts and 863000 counts and 1453000 counts and 1099000 counts; in series [8] (AZD0466 34 mg/kg (10mg/kg AZD4320), day 8), 2077000 counts and 2641000 counts and 963600 counts and 3688000 counts and 1848000 counts; in series [8] (AZD0466 34 mg/kg (10mg/kg AZD4320), day 11), 2663000 counts and 3475000 counts and 794700 counts and 3942000 counts and 2369000 counts; in series [8] (AZD0466 34 mg/kg (10mg/kg AZD4320), day 15), 3909000 counts and 5355000 counts and 1268000 counts and 8178000 counts and 3745000 counts; in series [8] (AZD0466 103 mg/kg (30mg/kg AZD4320), day 1) it was 1023000 counts and 885100 counts and 876200 counts and 2011000 counts and 1243000 counts. The “Raw bioluminescence counts” value is 712200 counts and 758000 counts and 861600 counts and 963300 counts and 1088000 counts in series [8] (AZD0466 103 mg/kg (30mg/kg AZD4320), day 4); 888700 counts and 911000 counts and 1080000 counts and 921400 counts and 1303000 counts in series [8] (AZD0466 103 mg/kg (30mg/kg AZD4320), day 8); 687900 counts and 678400 counts and 868400 counts and 651900 counts and 817800 counts in series [8] (AZD0466 103 mg/kg (30mg/kg AZD4320), day 11); 1023000 counts and 956600 counts and 1075000 counts and 787100 counts and 1030000 counts in series [8] (AZD0466 103 mg/kg (30mg/kg AZD4320), day 15); 851500 counts and 1286000 counts and 895800 counts and 1120000 counts and 1558000 counts in series [8] (AZD0466 340 mg/kg (100mg/kg AZD4320), day 1); 675300 counts and 732000 counts and 775100 counts and 773400 counts and 665700 counts in series [8] (AZD0466 340 mg/kg (100mg/kg AZD4320), day 4). Further, the “Raw bioluminescence counts” value in series [8] (AZD0466 340 mg/kg (100mg/kg AZD4320), day 8) was 696900 counts and 758300 counts and 613100 counts and 757700 counts and 754200 counts; in series [8] (AZD0466 340 mg/kg (100mg/kg AZD4320), day 11) it was 628500 counts and 817700 counts and 761500 counts and 744200 counts and 883400 counts; in series [8] (AZD0466 340 mg/kg (100mg/kg AZD4320), day 15), 1033000 counts and 1121000 counts and 987400 counts and 873700 counts and 861800 counts. Also, in series [8] (disseminated Ri-1, once weekly IV), the “anti-tumour activity” value is recorded as “dose-dependent anti-tumour activity”.
